Laboratory results published in patent publication US8691498B2, “Methods of screening for a compound that reduces atherogenesis” (Arena Pharmaceuticals, Inc., priority 2005, dated 2014).

Tests used:
[1] = test system: ABCA1 mRNA in human macrophage; assay: Steady-state ABCA1 mRNA level in human macrophage (TaqMan); assay type: cell-based; details: human monocyte-derived macrophage, 24 hours
Description: Macrophages were derived from monocytes as previously indicated. […] Vehicle was dimethyl sulfoxide (DMSO); the final concentration of DMSO in the culture was 0.1% (v/v). Total RNA was extracted from the cells and analyzed by TaqMan analysis as previously indicated to assess steady-state ABCA1 mRNA level. Data are the average and SD of three replicates. The qPCR reactions were prepared from the cDNA using the Bio-Rad qPCR kit, following the manufacturer's protocol. The qPCR reactions were performed using the ABI Prism 7900HT machine with the following temperatures and times: 50° C.—2 min, 95° C.—10 min followed by 40 cycles of 95° C.—15 sec and 60° C.—1 min.

[2] = target: GPR88 (Homo sapiens, UniProt Q9GZN0); assay: EC50 at GPR88 (selectivity, data not shown); assay type: cell-based; details: for EC50: not shown; for selectivity for GPR84 over GPR88: concluded from EC50 at GPR84 and GPR88
[3] = target: T1, GPR84 (Homo sapiens, UniProt Q9NQS5); assay: Cyclase (cAMP Flashplate) assay in 293 cells transfected with GPR84; assay type: cell-based; details: 1 hr treatment
Excerpt: Thyroid-stimulating hormone (TSH, or thyrotropin) receptor (TSHR) causes the accumulation of intracellular cAMP on activation by its ligand TSH. An effective technique for measuring the decrease in production of cAMP corresponding to activation of a Gi-coupled receptor is to co-transfect TSHR with the Gi-coupled receptor and to carry out the assay in the presence of TSH to raise the level of basal cAMP, whereby TSHR acts as a “signal window enhancer.” Such an approach was used here. Cyclase assay of GPR84 activity was carried out. 293 cells were transfected with either vector alone or vector containing polynucleotide encoding GPR84.

[4] = test system: TNFα secretion by mouse macrophage cell line RAW; assay: TNFα secretion by mouse macrophage cell line RAW (ELISA); assay type: cell-based; details: RAW cells, 1 μM for 24 hours, absence or presence of LPS
Description: RAW cells were cultured to subconfluency. […] Vehicle was dimethyl sulfoxide (DMSO); the final concentration of DMSO in the culture was 0.1% (v/v). Cells were then stimulated with the indicated concentrations of LPS for 24 hours. Supernatants were collected and TNFα levels were assayed using a mouse specific TNFα ELISA kit from Biosource.

[5] = test system: MCP-1 mRNA in human macrophage; assay: Steady-state MCP-1 mRNA level in human macrophage (microarray); assay type: cell-based; details: 10 μM, 24 hours
Description: (§1) Human peripheral blood monocytes were isolated from buffy coat by dextran and ficoll purification. Monocytes were then purified using a monocyte isolation kit from Miltenyi Biotec. Monocytes were cultured for 7 days with 10 ng/ml GM-CSF to derive macrophage cells. […] MCP-1 and IL-8 steady-state mRNA levels were assessed by microarray analysis. Vehicle was dimethyl sulfoxide (DMSO); the final concentration of DMSO in the culture was 0.1% (v/v). Expression levels are the average and SD of two replicates.

[6] = test system: IL-8 mRNA in human macrophage; assay: Steady-state IL-8 mRNA level in human macrophage (microarray); assay type: cell-based; details: 10 μM, 24 hours
Description: as §1

[7] = test system: TNFα secretion by human macrophage; assay: TNFα secretion by human macrophage (ELISA); assay type: cell-based; details: 10 μM for 24 hrs, absence or presence of LPS
Description: Human peripheral blood monocytes were isolated from buffy coat by dextran and ficoll purification. Monocytes were then purified using a monocyte isolation kit from Miltenyi Biotec. Monocytes were cultured for 7 days with 10 ng/ml GM-CSF to derive macrophage cells. […] Vehicle was dimethyl sulfoxide (DMSO); the final concentration of DMSO in the culture was 0.1% (v/v). Cells were then stimulated with the indicated concentrations of LPS for 24 hours. Supernatants were collected and TNFα levels were assayed using a human specific TNFα ELISA kit from Biosource.

[8] = target: T1, GPR84; assay: IP3 assay in 293 cells transfected with GPR84, with or without Gq(del)/Gi chimeric G protein; assay type: cell-based; parameters: expressed in transfected cells; host or cells: 293 cells comprising or not comprising Gq(del)/Gi; details: 293 cells comprising Gq(del)/Gi chimeric G protein, 10 μM, 3 hrs
Description: IP3 Assay of GPR84 activity was carried out. 293 cells were transfected with either vector alone or vector containing polynucleotide encoding GPR84. […] 24 hrs after transfection, cells were plated into 96 well plates, labeled overnight with ^3H-myoinositol.

[9] = target: T1, GPR84; assay: Melanophore pigment aggregation assay, melanophores transiently transfected with human GPR84; assay type: cell-based; parameters: Full-Length Cloning of Endogenous Human GPR84; expressed in transfected cells; host or cells: melanophores (transient transfection); details: representative melanophore assay, one hour incubation
Excerpt: Melatonin activates an endogenous Gi-coupled receptor in the melanophores and causes them to aggregate their pigment. […] If the receptor were either a Gs or Gq coupled receptor, then the melatonin-aggregated melanophores would undergo pigment dispersion. In contrast, if the receptor was a Gi-coupled receptor, then the pigment-dispersed cells would be expected to undergo a dose-dependent pigment aggregation.

[10] = test system: GPR84 mRNA in human monocytes; assay: GPR84 mRNA expression in primary human monocytes (QRT-PCR); assay type: cell-based; details: overnight
Excerpt: Peripheral blood leukocytes were separated from erythrocytes by sedimentation in a dextran containing saline solution. The leukocytes were washed, and mononuclear cells were isolated on a Ficoll density gradient. Peripheral blood mononuclear cells were then washed and negatively selected using a MACS® monocyte isolation kit II (Miltenyi Biotec, Auburn, Calif.) and LS MACS® cell separation columns according to manufacturer's instructions. Freshly isolated monocytes were then resuspended in culture medium alone or culture medium supplemented with TNFα (10 ng/ml) or IFNγ (10 or 100 ng/ml) and allowed to adhere to wells precoated with vitronectin. Cultures were harvested at the indicated times. GPR84 TaqMan analysis was performed essentially as described in Part A of Example 15, infra. Multiple replicates were obtained from different individual donors. Data are expressed as the mean of the ratio of the GPR84 signal to the HS9 (Human ribosomal protein S9, housekeeping gene) signal±SEM.

[11] = target: T1, GPR84; assay: GTPγS binding assay with membranes from GPR84 transfected CHO-KI cells; assay type: biochemical; details: not shown
Description: GTPγS assay of GPR84 activity was carried out. Membranes prepared from GPR84 transfected CHO-KI cells were dissolved in binding buffer (20 mM HEPES, pH 7.4, 100 mM NaCl, 10 mM MgCl2) and homogenized briefly using a polytron. Membrane protein concentration was determined by Bradford assay and the membranes were diluted to 0.4 mg/ml in binding buffer. […] Binding was allowed to proceed for one hour before centrifuging the plates at room temperature to pellet the membrane and subsequent counting in a TopCount scintillation counter.

Chain of GPR88 (Q9GZN0 whole entry): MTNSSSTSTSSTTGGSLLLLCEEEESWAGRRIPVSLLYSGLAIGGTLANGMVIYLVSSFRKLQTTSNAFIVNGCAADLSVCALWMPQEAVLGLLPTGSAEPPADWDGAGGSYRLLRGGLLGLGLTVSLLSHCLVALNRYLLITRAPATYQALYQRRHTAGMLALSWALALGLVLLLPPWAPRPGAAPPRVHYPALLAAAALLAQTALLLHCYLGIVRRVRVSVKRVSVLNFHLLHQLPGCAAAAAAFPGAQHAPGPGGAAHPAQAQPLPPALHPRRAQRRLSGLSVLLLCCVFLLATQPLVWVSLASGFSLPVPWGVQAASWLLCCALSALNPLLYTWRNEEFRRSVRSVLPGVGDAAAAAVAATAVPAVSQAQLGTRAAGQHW
T1 sequence (Q9NQS5 whole entry): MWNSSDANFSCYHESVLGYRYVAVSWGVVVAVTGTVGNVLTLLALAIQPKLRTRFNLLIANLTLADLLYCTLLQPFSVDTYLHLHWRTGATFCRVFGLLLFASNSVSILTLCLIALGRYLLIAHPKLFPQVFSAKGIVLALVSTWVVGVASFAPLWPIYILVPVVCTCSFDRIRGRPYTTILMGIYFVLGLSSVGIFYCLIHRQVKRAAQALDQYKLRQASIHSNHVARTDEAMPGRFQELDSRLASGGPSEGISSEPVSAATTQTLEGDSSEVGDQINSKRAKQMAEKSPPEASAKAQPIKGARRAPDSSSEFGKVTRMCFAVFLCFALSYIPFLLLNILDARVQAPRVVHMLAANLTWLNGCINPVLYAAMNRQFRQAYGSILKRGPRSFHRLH

For `CCCCCCCCCCCC1=C(O)C(=O)C=C(O)C1=O` [Compound 1, 2,5-Dihydroxy-3-undecyl-[1,4]benzoquinone], the “steady-state level of ABCA1 mRNA” value [1] was “increase”, the EC50 [2] was over 100 µM and the “level of intracellular cAMP” value [3] was “decrease”. For the same compound, the TNFα secretion [4] was “no effect”, the “steady-state level of MCP-1 mRNA” value [5] was “decrease” and the “steady-state level of IL-8 mRNA” value [6] was “increase”. The TNFα secretion [7] was “no effect” and the “level of intracellular IP accumulation” value [8] was “increase”.
With `CCCCCC#CCC#CCC#CCC#CCCCC(=O)O` [Compound 2, Icosa-5,8,11,14-tetraynoic acid] the “selectivity for GPR84 over GPR88” value [2] was “selective GPR84 agonist”, the EC50 [2] was over 10 µM and the EC50 [9] was 48.2 nM.
With `CCCCC/C=C/C/C=C/C=C/C=C/[C@@H](O)[C@@H](O)CCCC(=O)O` [Compound 3, 5S,6R-Dihydroxy-icosa-7,9,11,14-tetraenoic acid] the “selectivity for GPR84 over GPR88” value [2] was “selective GPR84 agonist”, the EC50 [2] was over 10 µM and the EC50 [9] was 30.8 nM.
With “IFNγ: proinflammatory cytokine interferon gamma” the “GPR84 mRNA expression” value ([10]; primary monocytes, 10 or 100 ng/ml) was “dose-dependent increase”.
For Pertussis toxin, the “effect on stimulation of GTPγS binding to membrane by Compound 1” value [11] was “inhibit”.
In the case of TNFα, the “GPR84 mRNA expression” value ([10]; primary human monocytes, 10 ng/ml) is reported as “significant increase”.
